Consider six compounds from patent US5306713A, “Highly active antioxidant of tocopheryl ascorbyl phosphate” (Shiseido Company Ltd., priority 1991, dated 1994).

Counter-ions that a name gives are not always drawn.

One data set in a line: solubility in water. The format is physicochemical.
Data set [1] in a line: amount of formalin in triethylene glycol stored at 50° C., by colorimetry (Experimental Example 1). The note with it: 50% aqueous triethylene glycol; for amount of formalin, After 3 Days / amount of formalin, After 6 Days / amount of formalin, Just After Preparation: 2 mg antioxidant in 10 g. As to the method:
As the example of the present invention, 2 mg of the sodium salt of phosphoric acid diester obtained in Preparation Example 2 was dissolved in 10 g of a 50% aqueous solution of triethylene glycol (supplied by Nakarai Chemicals Co., Ltd.), the solution was stored in a thermostat tank maintained at 50° C. for 3 or 6 days, and the amount of formalin was measured by colorimetry.
Triethylene glycol free of any antioxidant as Comparison Example 1, triethylene glycol in which ascorbic acid was added in the same amount as in the Example of the present invention, as Comparison Example 2, and triethylene glycol in which mixed tocopherol was incorporated in the same amount as in the example of the present invention, as Comparison Example 3, were tested in the same manner as described above.

The nature of data set [2]: smell evaluation of stored triethylene glycol samples by three experts (Experimental Example 2). Also noted: key: +: no smell of rancidity; -: strong smell of rancidity. The note with it: samples of Experimental Example 1 after 6 days storage. Here is the method:
The sample of the Example of the present invention and Comparison Examples 1, 2, and 3 in Experimental Example 1, obtained after 6 days storage, were evaluated with respect to the smell thereof.
The evaluation was made by three experts.

A short description of data set [3]: anti-oxidizing effect against oxidation of phospholipid/ethanol mixed micell by Fe^2+.ascorbic acid (Experimental Example 3). The class given is biochemical. As to conditions: 4.0 × 10^-5 M. Here is the method:
The anti-oxidizing effect of the sodium salt of phosphoric acid diester prepared in Preparation Example 2 against the oxidation of a phospholipid (egg lecitin)/ethanol mixed micell by Fe^2+.ascorbic acid was examined.
About 78 mg of egg lecitin was dissolved in 2 ml of ethanol, and 5 mM HEPES buffer solution (pH 7.2) was gradually added to the solution with ice cooling under the application of an ultrasonic wave (50 W) to form a suspension, until the total amount was 100 ml. Then, 200 μl of a 2.6×10^-4 M aqueous solution of the sodium salt of phosphoric acid diester was added to 1000 μl of the so-formed liquid. Then 50 μl of a 5.0×10^-5 M aqueous solution of sodium ascorbate and 50 μl of a 2.5×10^-6 M aqueous solution of ferrous sulfate were added to the mixture, and oxidation was carried out for 15 minutes in a water bath at 25° C. After the reaction, 50 μl of a 0.1% solution of hydroquinone in ethanol was immediately added to stop the reaction. […] After cooling, the absorbance at 450 to 600 nm was measured by a spectrophotometer. The increase of the absorption in the vicinity of about 530 to about 540 nm in the obtained curve was measured. The inhibition ratio was determined by comparing the obtained result with the result obtained at the blank test not using the test liquid.

The conditions of data set [4]: cited from earlier work.

For `Cc1c(C)c2c(c(C)c1OP(=O)(O)OC1=C(O)[C@@H]([C@@H](O)CO)OC1=O)CCC(C)(CCCC(C)CCCC(C)CCCC(C)C)O2` (mixture of isomers) [phosphoric acid diester, L-ascorbic DL-α-tocopherol phosphate], in the data set “solubility in water”, the “solubility in water (in words)” value is “freely dissolved in water”.
`Cc1c(C)c2c(c(C)c1OP(=O)(O)OC1=C(O)[C@@H]([C@@H](O)CO)OC1=O)CCC(C)(CCCC(C)CCCC(C)CCCC(C)C)O2` (mixture of isomers) [potassium salt, potassium L-ascorbic DL-α-tocopherol phosphate]: the “solubility in water (in words)” value in the data set “solubility in water” was “soluble in water”.
Turning to `Cc1c(C)c2c(c(C)c1OP(=O)(O)OC1=C(O)[C@@H]([C@@H](O)CO)OC1=O)CCC(C)(CCCC(C)CCCC(C)CCCC(C)C)O2` (mixture of isomers) [sodium salt of phosphoric acid diester, sodium L-ascorbic DL-α-tocopherol phoschate], in data set [1] (50° C.), the “amount of formalin, After 3 Days” value was found to be 1.7 and the “amount of formalin, After 6 Days” value is reported as 15.5. Also, the “amount of formalin, Just After Preparation” value in data set [1] is 0.1. For the same compound, the “anti-oxidizing effect compared with ascorbic acid or tocopherol alone (in words)” value in data set [1] (50° C., 3 or 6 days) was “much higher anti-oxidizing effect”. For the same compound, the “Judgement of Smell” value in data set [2] is “+”. Further, the “inhibition of the oxidation (in words)” value in data set [3] was “substantially completely inhibited the oxidation”. In data set [3] (oxidation 15 minutes at 25° C., pH 7.2 HEPES, TBA absorbance about 530 to about 540 nm, 40 µM), the “Inhibition Ratio” value is 99.1%. Moreover, the “solubility in water (in words)” value in “solubility in water” is “soluble in water”.
With `O=C1O[C@H]([C@@H](O)CO)C(O)=C1O` [ascorbic acid, reference compound], in data set [1] (50° C.), the “amount of formalin, After 3 Days” value is 39.6 and the “amount of formalin, After 6 Days” value is listed as 111.7. In addition, the “amount of formalin, Just After Preparation” value in data set [1] is 0.1. Further, in data set [2], the “Judgement of Smell” value is given as “-”.
Turning to `Cc1c(C)c2c(c(C)c1OP(=O)(O)OC1=C(O)[C@@H]([C@@H](O)CO)OC1=O)CCC(C)(CCCC(C)CCCC(C)CCCC(C)C)O2` (stereo partly shown) [calcium salt], in “solubility in water”, the “solubility in water (in words)” value is “insoluble in water”.
As to tocopherol, in data set [4], the “solubility of tocopherol in water (in words)” value is “not soluble in water”.
